Test results from ChEMBL document CHEMBL5241130, “Integrating a phenotypic screening with a structural simplification strategy to identify 4-phenoxy-quinoline derivatives to potently disrupt the mitotic localization of Aurora kinase B” (Bioorg Med Chem, 2023).
Calls of active or inactive are those of the source. No cut-off for these calls is given here.

What was measured:
[1] = target: Aurora kinase B (Homo sapiens) (UniProt Q96GD4); experiment: Disruption of mitotic localization of AURKB in human RPE-MYC H2B-GFP cells assessed as induction of mitotic arrest measured after 24 hrs by fluorescence high content cell imaging analysis; type: cell-based
Chain of Aurora kinase B (Homo sapiens) (Q96GD4 whole entry): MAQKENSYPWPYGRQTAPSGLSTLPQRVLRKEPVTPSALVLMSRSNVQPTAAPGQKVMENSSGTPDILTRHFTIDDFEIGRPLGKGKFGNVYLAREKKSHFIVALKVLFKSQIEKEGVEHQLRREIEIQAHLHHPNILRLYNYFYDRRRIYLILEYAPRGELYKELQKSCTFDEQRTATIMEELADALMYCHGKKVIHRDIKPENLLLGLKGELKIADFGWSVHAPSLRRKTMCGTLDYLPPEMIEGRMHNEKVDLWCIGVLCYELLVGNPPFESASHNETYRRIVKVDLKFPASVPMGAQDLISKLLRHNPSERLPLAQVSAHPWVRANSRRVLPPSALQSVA

[2] = target: Aurora kinase B (Homo sapiens) (UniProt Q96GD4); experiment: Disruption of mitotic localization of AURKB in human RPE-MYC H2B-GFP cells assessed as induction of polyploidy by fluorescence high content cell imaging analysis; type: cell-based
[3] = target: Aurora kinase B (Homo sapiens) (UniProt Q96GD4); experiment: Disruption of mitotic localization of AURKB at the spindle mid-zone and equatorial cortex in human RPE-MYC cells expressing BCL2 at 40 nM measured after 6 hrs by immunofluorescence staining analysis; type: cell-based
[4] = target: Aurora kinase B (Homo sapiens) (UniProt Q96GD4); experiment: Disruption of mitotic localization of AURKB in human RPE-MYC cells expressing BCL2 assessed as disruption of PLK1 localization at spindle mid-zone at 40 nM measured after 6 hrs by immunofluorescence staining analysis; type: cell-based
[5] = target: Aurora kinase B (Homo sapiens) (UniProt Q96GD4); experiment: Disruption of mitotic localization of AURKB in human RPE-MYC cells expressing BCL2 assessed as disruption of MKLP1 localization at spindle mid-zone at 40 nM measured after 6 hrs by immunofluorescence staining analysis; type: cell-based
NCI-H23 = experiment: Cytotoxicity against human NCI-H23 cells assessed as cell growth inhibition incubated for 3 days by MTT assay; type: functional, cell-based; conditions: time 3.0 day
A549 = experiment: Cytotoxicity against human A549 cells assessed as cell growth inhibition incubated for 3 days by MTT assay; type: functional, cell-based; conditions: time 3.0 day
HCT-116 = experiment: Cytotoxicity against human HCT-116 cells assessed as cell growth inhibition incubated for 3 days by MTT assay; type: functional, cell-based; conditions: time 3.0 day
SW480 = experiment: Cytotoxicity against human SW480 cells assessed as cell growth inhibition incubated for 3 days by MTT assay; type: functional, cell-based; conditions: time 3.0 day
MDA-MB-231 = experiment: Cytotoxicity against human MDA-MB-231 cells assessed as cell growth inhibition incubated for 3 days by MTT assay; type: functional, cell-based; conditions: time 3.0 day
HeLa = experiment: Cytotoxicity against human HeLa cells assessed as cell growth inhibition incubated for 3 days by MTT assay; type: functional, cell-based; conditions: time 3.0 day
NCI-N87 = experiment: Cytotoxicity against human NCI-N87 cells assessed as cell growth inhibition incubated for 3 days by MTT assay; type: functional, cell-based; conditions: time 3.0 day
[6] = target: Aurora kinase B (Homo sapiens) (UniProt Q96GD4); experiment: Disruption of mitotic localization of AURKB in human RPE-MYC H2B-GFP cells assessed as induction of mitotic arrest by fluorescence high content cell imaging analysis; type: cell-based
[7] = target: Aurora kinase B (Homo sapiens) (UniProt Q96GD4); experiment: Disruption of mitotic localization of AURKB in human RPE-MYC H2B-GFP cells assessed as induction of polyploidy by fluorescence high content cell imaging analysis relative to control; type: cell-based
[8] = target: T1, Aurora kinase A (Homo sapiens) (UniProt O14965); experiment: Inhibition of AURKA in human RPE-MYC H2B-GFP cells assessed as inhibition of autophosphorylation of AURKA at Thr288 residue at 8XMEC measured after 6 hrs by immunofluorescence staining analysis; type: cell-based
T1 sequence (whole entry): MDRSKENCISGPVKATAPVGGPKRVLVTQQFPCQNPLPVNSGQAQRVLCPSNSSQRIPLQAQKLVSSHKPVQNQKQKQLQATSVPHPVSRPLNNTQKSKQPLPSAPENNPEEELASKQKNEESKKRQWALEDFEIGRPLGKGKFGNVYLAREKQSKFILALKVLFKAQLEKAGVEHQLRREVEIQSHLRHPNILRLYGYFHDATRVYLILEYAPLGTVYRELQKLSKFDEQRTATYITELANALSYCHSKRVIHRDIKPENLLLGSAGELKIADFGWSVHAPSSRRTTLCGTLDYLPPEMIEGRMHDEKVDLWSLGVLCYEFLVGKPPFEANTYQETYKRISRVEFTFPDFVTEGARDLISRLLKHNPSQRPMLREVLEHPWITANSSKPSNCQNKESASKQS

[9] = target: Aurora kinase B (Homo sapiens) (UniProt Q96GD4); experiment: Inhibition of AURKB in human RPE-MYC H2B-GFP cells assessed as inhibition of histone H3 phosphorylation at Ser10 residue at 8XMEC measured after 6 hrs by immunofluorescence staining analysis; type: cell-based
[10] = target: T1, Aurora kinase A (Homo sapiens); experiment: Inhibition of AURKA in human RPE-MYC H2B-GFP cells assessed as inhibition of autophosphorylation of AURKA at Thr288 residue by measuring residual enzyme activity at 0.078 uM measured after 6 hrs by immunofluorescence staining analysis (reference value: 100 +/-1%); type: cell-based
[11] = target: T1, Aurora kinase A (Homo sapiens); experiment: Inhibition of AURKA in human RPE-MYC H2B-GFP cells assessed as inhibition of autophosphorylation of AURKA at Thr288 residue by measuring residual enzyme activity at 0.156 uM measured after 6 hrs by immunofluorescence staining analysis (reference value: 100 +/-1%); type: cell-based
[12] = target: T1, Aurora kinase A (Homo sapiens); experiment: Inhibition of AURKA in human RPE-MYC H2B-GFP cells assessed as inhibition of autophosphorylation of AURKA at Thr288 residue by measuring residual enzyme activity at 0.312 uM measured after 6 hrs by immunofluorescence staining analysis (reference value: 100 +/-1%); type: cell-based
[13] = target: Aurora kinase B (Homo sapiens) (UniProt Q96GD4); experiment: Inhibition of AURKB in human RPE-MYC H2B-GFP cells assessed as inhibition of histone H3 phosphorylation at Ser10 residue by measuring residual enzyme activity at 0.078 uM measured after 6 hrs by immunofluorescence staining analysis (reference value: 100 +/-9%); type: cell-based
[14] = target: Aurora kinase B (Homo sapiens) (UniProt Q96GD4); experiment: Inhibition of AURKB in human RPE-MYC H2B-GFP cells assessed as inhibition of histone H3 phosphorylation at Ser10 residue by measuring residual enzyme activity at 0.156 uM measured after 6 hrs by immunofluorescence staining analysis (reference value: 100 +/-9%); type: cell-based
[15] = target: Aurora kinase B (Homo sapiens) (UniProt Q96GD4); experiment: Inhibition of AURKB in human RPE-MYC H2B-GFP cells assessed as inhibition of histone H3 phosphorylation at Ser10 residue by measuring residual enzyme activity at 0.312 uM measured after 6 hrs by immunofluorescence staining analysis (reference value: 100 +/-9%); type: cell-based
[16] = target: Aurora kinase B (Homo sapiens) (UniProt Q96GD4); experiment: Disruption of mitotic localization of AURKB in human RPE-MYC H2B-GFP cells assessed as proportion of polyploid cells in fully attached cell population at 0.078 uM measured after 48 hrs by fluorescence high content cell imaging analysis (Rvb <1%); type: cell-based
[17] = target: Aurora kinase B (Homo sapiens) (UniProt Q96GD4); experiment: Disruption of mitotic localization of AURKB in human RPE-MYC H2B-GFP cells assessed as proportion of polyploid cells in fully attached cell population at 0.156 uM measured after 48 hrs by fluorescence high content cell imaging analysis (Rvb <1%); type: cell-based
[18] = target: Aurora kinase B (Homo sapiens) (UniProt Q96GD4); experiment: Disruption of mitotic localization of AURKB in human RPE-MYC H2B-GFP cells assessed as proportion of polyploid cells in fully attached cell population at 0.312 uM measured after 48 hrs by fluorescence high content cell imaging analysis (Rvb <1%); type: cell-based
[19] = target: Aurora kinase B (Homo sapiens) (UniProt Q96GD4); experiment: Disruption of mitotic localization of AURKB in human RPE-MYC H2B-GFP cells assessed as mitotic index at 0.078 uM measured after 6 hrs by fluorescence high content cell imaging analysis (reference value: 4.7+/-0.4%); type: cell-based
[20] = target: Aurora kinase B (Homo sapiens) (UniProt Q96GD4); experiment: Disruption of mitotic localization of AURKB in human RPE-MYC H2B-GFP cells assessed as mitotic index at 0.156 uM measured after 6 hrs by fluorescence high content cell imaging analysis (reference value: 4.7+/-0.4%); type: cell-based
[21] = target: Aurora kinase B (Homo sapiens) (UniProt Q96GD4); experiment: Disruption of mitotic localization of AURKB in human RPE-MYC H2B-GFP cells assessed as mitotic index at 0.312 uM measured after 6 hrs by fluorescence high content cell imaging analysis (reference value: 4.7+/-0.4%); type: cell-based

Row | SMILES | MEC [1] [µM] | MEC [2] [µM] | other results
1 | COC(=O)c1cc2c(Oc3cc(OC)cc(-n4cccn4)c3)ccnc2cc1OC | 0.039 | 0.078 | –
2 | COc1cc(NC(C)=O)cc(Oc2ccnc3ccc(F)cc23)c1 | 0.01 | 0.01 | Activity [3]: Active; Activity [4]: Active; Activity [5]: Active; Activity (NCI-H23): Active; Activity (A549): Active; Activity (HCT-116): Active; Activity (SW480): Active; Activity (MDA-MB-231): Active; Activity (HeLa): Active; Activity (NCI-N87): Active; Activity [6]: inactive; Activity [7]: 100%; inhibition [8]: < 40%; inhibition [9]: < 40%
3 | COc1ccc(Oc2ccnc3ccccc23)cc1 | > 40 | > 40 | –
4 | COc1cc(Oc2ccnc3cc(Cl)ccc23)cc(-n2cccn2)c1 | 20 | 20 | –
5 | CCOC(=O)c1cccc(Oc2ccnc3ccccc23)c1 | 10 | 10 | –
6 | COc1cc(Oc2ccnc3cc(OC)c(OC)cc23)cc(-n2cccn2)c1 | 0.012 | 0.012 | Activity [3]: Active; Activity [4]: Active; Activity [5]: Active; Activity (NCI-H23): Active; Activity (A549): Active; Activity (HCT-116): Active; Activity (SW480): Active; Activity (MDA-MB-231): Active; Activity (HeLa): Active; Activity (NCI-N87): Active; Activity [6]: inactive; Activity [7]: 100%; inhibition [8]: < 40%; inhibition [9]: < 40%
7 | COc1cc(NC(C)=O)cc(Oc2ccnc3cc(OC)c(C(N)=O)cc23)c1 | 0.625 | 0.625 | –
8 | COC(=O)c1ccc(Oc2ccnc3ccccc23)cc1 | 40 | 40 | –
9 | COc1cc(OC)cc(Oc2ccnc3ccccc23)c1 | 0.078 | 0.078 | –
10 | COc1cc(Oc2ccnc3ccccc23)cc(C(=O)O)c1 | > 40 | > 40 | –
11 | COC(=O)c1cc(OC)cc(Oc2ccnc3ccccc23)c1 | 0.02 | 0.02 | –
12 | CC(=O)c1cccc(Oc2ccnc3ccccc23)c1 | 10 | 10 | –
13 | COc1cc(Oc2ccnc3ccccc23)cc(C(F)(F)F)c1 | 1.25 | 1.25 | –
14 | O=Cc1cccc(Oc2ccnc3ccccc23)c1 | > 40 | > 40 | –
15 | c1ccc(Oc2ccnc3ccccc23)cc1 | > 40 | > 40 | –
16 | COC(=O)c1ccc(OC)c(Oc2ccnc3ccccc23)c1 | 0.625 | 0.625 | –
17 | Cc1csc(-c2nnc(Nc3ccc(Oc4ccnc5ccccc45)cc3)c3ccccc23)c1 | – | – | Activity [10]: 100%; Activity [11]: 100%; Activity [12]: 100%; Activity [13]: 98%; Activity [14]: 21.4%; Activity [15]: 0%; Activity [16]: 100%; Activity [17]: 100%; Activity [18]: 100%; Activity [19]: 11%; Activity [20]: 9.8%; Activity [21]: 10.1%
18 | O=C(NC1CCCC1)c1cccc(Oc2ccnc3ccccc23)c1 | > 40 | > 40 | –
19 | COC(=O)c1cc2c(Oc3cc(NC(C)=O)cc(OC)c3)ccnc2cc1OC | 1.25 | 1.25 | –
20 | COC(=O)c1cccc(Oc2ccnc3ccccc23)c1 | 10 | 10 | –
21 | COc1cc(Oc2ccnc3ccc(F)cc23)cc(-n2cccn2)c1 | 0.052 | 0.052 | –

Continued, in another order:

Row | MEC [1] [µM] | MEC [2] [µM] | SMILES | other results
22 | 0.078 | 0.078 | COc1cc(NC(C)=O)cc(Oc2ccnc3ccccc23)c1 | –
23 | 0.078 | 0.078 | COc1cc(Oc2ccnc3ccccc23)cc(-n2cccn2)c1 | –
24 | 0.039 | 0.078 | COc1cc(NC(C)=O)cc(Oc2ccnc3cc(OC)c(OC)cc23)c1 | –
25 | > 40 | > 40 | COc1cc(Oc2ccnc3cc(C(F)(F)F)ccc23)cc(-n2cccn2)c1 | –
26 | 40 | 40 | Nc1cccc(Oc2ccnc3ccccc23)c1 | –
27 | 5 | 5 | COc1cccc(Oc2ccnc3ccccc23)c1 | –
28 | 5 | 5 | COc1cc(Oc2ccnc3cc(OC)ccc23)cc(-n2cccn2)c1 | –
29 | 0.625 | 1.25 | CNC(=O)c1cc(OC)cc(Oc2ccnc3ccccc23)c1 | –
30 | 0.012 | 0.012 | COc1cc(Oc2ccnc3ccc(OC)cc23)cc(-n2cccn2)c1 | Activity [3]: Active; Activity [4]: Active; Activity [5]: Active; Activity (NCI-H23): Active; Activity (A549): Active; Activity (HCT-116): Active; Activity (SW480): Active; Activity (MDA-MB-231): Active; Activity (HeLa): Active; Activity (NCI-N87): Active; Activity [6]: inactive; Activity [7]: 100%; inhibition [8]: < 40%; inhibition [9]: < 40%
31 | 0.625 | 0.625 | COc1cc(Oc2ccnc3ccccc23)cc(-c2nc(C)no2)c1 | –
